A short description of this assay: Inhibition of His-tagged human PDK1 expressed in Sf21 cells.

`CCCCCCOC(=O)[C@@]1(O)C[C@H]2O[C@]1(C)n1c3ccccc3c3c4c(c5c6ccccc6n2c5c31)C(=O)NC4` [KT-5720] returned an IC50 of 300 nM.

The term IC50 denotes the concentration that inhibits the measured activity by half. A lower IC50 goes with higher potency.

The record behind these values is BindingDB's records for doi:10.1042/0264-6021:3510095 (University of Dundee, 2001).
